The record followed here is patent US11691950B2, “Isoquinoline-steroid conjugates and uses thereof” (priority 2018, dated 2023).

One test deals with TOX. The test is described as follows: TOX assay. As to conditions: HCl salt. Type of test: cell-based. How it is done: Inhibition of various kinases was assayed.
A further test has as its system myeloperoxidase activity. The test can be described thus: Myeloperoxidase (MPO) activity after intravitreal LPS in mice. It counts as in vivo, C57B16 male mice. The following applies: dosed at 0 and 6 hours, collected 24 hours. How it is done: Adult C57B16 male mice were injected with 2 ng of lipopolysaccharide (LPS) intravitreally. The mice were then dosed with vehicle, compounds or control treatments (0.07% w/w, 0.02% w/w or 0.007% w/w) at times 0 and 6 hours post-injection. Aqueous humor (AH) and vitreous humor (VH) was collected 24 hours after injection of LPS and assayed for MPO activity by ELISA. Data is a compilation of two separate experiments. Statistical analysis was carried out on GraphPad prism using a multiple comparisons 1-way ANOVA with uncorrected Dunn's test. Results are shown in FIG. 5 (aqueous humor) and FIG. 6 (vitreous humor). In FIG. 5 and FIG. 6, Dex refers to dexamethasone, Compound A refers to (S)-3-amino-2-(4-(hydroxymethyl)phenyl)-N-(isoquinolin-6-yl)propanamide, *refers to p<0.05, and **refers to p<0.005. MPO levels correspond to levels of neutrophil infiltration. In the context of non-infectious inflammatory events, neutrophils cause robust levels of damage to tissues.

A further test concerns TNFα. The test can be described thus: TNFα secretion assay (LPS-treated RAW264.7 macrophages, ELISA). As to conditions: RAW264.7 cells, 4 hrs. Type of test: cell-based, murine. How it is done:
The TNFα assay quantifies secreted TNFα from RAW264.7 immortalized murine macrophages as an indicator of inflammation. The cells were concurrently treated with LPS (as an inducer of inflammation) and a titration of test molecules or control compounds for 4 hrs. After the incubation period, the media was harvested and assayed via an ELISA assay. ODs of experimental samples are fit to those of a standard curve to extrapolate the TNFα concentration. IC50 values were calculated by fitting a curve to experimental values with the controls as the top and bottom limits of the curve. Selected compounds provided herein were subjected to this assay.

pIC50: −log10 of the molar value. Where a name gives a salt, the structure may show the parent alone.

The pIC50 is the IC50 on a negative log10 scale, so that one unit is a factor of ten. On to `C[C@@H]1C[C@H]2[C@@H]3CCC4=CC(=O)C=C[C@]4(C)[C@@]3(F)[C@@H](O)C[C@]2(C)[C@@]1(O)C(=O)COC(=O)c1ccc(C(=O)OCc2ccc([C@@H](CN)C(=O)Nc3ccc4cnccc4c3)cc2)cc1` [Example 66, 4-((S)-3-amino-1-(isoquinolin-6-ylamino)-1-oxopropan-2-yl)benzyl (2-((8S,9R,10S,11S,13S,14S,16R,17R)-9-fluoro-11,17-dihydroxy-10,13,16-trimethyl-3-oxo-6,7,8,9,10,11,12,13,14,15,16,17-dodecahydro-3H-cyclopenta[a]phenanthren-17-yl)-2-oxoethyl) terephthalate dihydrochloride], for which, in the test with TOX, the negative-log IC50 (pIC50) is 4.00.

`C[C@@H]1C[C@H]2[C@@H]3CCC4=CC(=O)C=C[C@]4(C)[C@@]3(F)[C@@H](O)C[C@]2(C)[C@@]1(O)C(=O)COC(=O)C[C@H](N)C(=O)OCc1ccc([C@@H](CN)C(=O)Nc2ccc3cnccc3c2)cc1` [Example 83, 1-(4-((S)-3-amino-1-(isoquinolin-6-ylamino)-1-oxopropan-2-yl)benzyl) 4-(2-((8S,9R,10S,11S,13S,14S,16R,17R)-9-fluoro-11,17-dihydroxy-10,13,16-trimethyl-3-oxo-6,7,8,9,10,11,12,13,14,15,16,17-dodecahydro-3H-cyclopenta[a]phenanthren-17-yl)-2-oxoethyl) L-aspartate trihydrochloride]: in the test on TOX, the pIC50 was 4.00.

Regarding `C[C@@H]1C[C@H]2[C@@H]3CCC4=CC(=O)C=C[C@]4(C)[C@@]3(F)[C@@H](O)C[C@]2(C)[C@@]1(O)C(=O)COC(=O)CCC(=O)OCc1ccc([C@@H](CN)C(=O)Nc2ccc3cnccc3c2)cc1` [Example 25], the pIC50 in the test with TOX was 4.00.

Regarding `CC1(C)O[C@@H]2C[C@H]3[C@@H]4CCC5=CC(=O)C=C[C@]5(C)[C@@]4(F)[C@@H](O)C[C@]3(C)[C@]2(C(=O)COC(=O)CCC(=O)OCc2ccc([C@@H](CN)C(=O)Nc3ccc4cnccc4c3)cc2)O1` [Example 33], the pIC50 in the test on TOX is 4.26. Also, in the test on myeloperoxidase activity (FIG. 5), the “myeloperoxidase activity in aqueous humor” value was “inhibiting effect”. Moreover, the “myeloperoxidase activity in vitreous humor” value in the test with myeloperoxidase activity (FIG. 6) is given as “inhibiting effect”.

For the compound `C[C@@H]1C[C@H]2[C@@H]3CCC4=CC(=O)C=C[C@]4(C)[C@@]3(F)[C@@H](O)C[C@]2(C)[C@@]1(O)C(=O)COC(=O)C1CC1C(=O)OCc1ccc([C@@H](CN)C(=O)Nc2ccc3cnccc3c2)cc1` (some centres unmarked) [Example 27], the pIC50 in the test with TOX is 4.00.

Take `CC(C)(C)OC(=O)NC[C@@H](C(=O)Nc1ccc2cnccc2c1)c1ccc(COC(=O)CCC(=O)OCC(=O)[C@@]2(O)CC[C@H]3[C@@H]4CCC5=CC(=O)C=C[C@]5(C)[C@H]4[C@@H](O)C[C@@]32C)cc1` [Example 14]: the pIC50 in the test on TNFα was 6.21.
